Results: the METLIN SMRT retention time set (Domingo-Almenara et al. 2019)

Assay: gradient 5% acetonitrile 3 min, to 50% in 2 min, to 85% in 15 min, held 3 min, 100 µL/min
Details: column: Zorbax Extend-C18 2.1 x 50 mm; eluents: water / acetonitrile, 0.1% formic acid
Procedure, shortened: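 Retention times of pure standards were taken from adduct peaks that were selected by computer and manually inspected. Over 3 months, mixtures of ~100 molecules were run by HPLC–quadrupole time-of-flight mass spectrometry in positive and negative ionization mode. The Zorbax Extend-C18 column (2.1 × 50 mm, 1.8 μm) ran at 100 μL/min in water and acetonitrile, each containing 0.1% formic acid, with 40 μL dead volume and 900 μL dwell volume.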

`COC(=O)C1=CN(c2cccc(SC)c2)c2cc(F)ccc2S1(=O)=O` showed an RP-LC retention time of 925 s.
`Cc1nn(CC(=O)NCc2cccs2)c(=O)c2nc(-c3ccccc3)sc12` gave an RP-LC retention time of 813 s.
`COc1cc(NC(=O)NCC(c2cccnc2)c2cn(C)c3ccccc23)cc(OC)c1OC` (stereo not given) gave an RP-LC retention time of 661 s.
`CC(C)Oc1ccc(-c2noc(Cn3ncn4nc(-c5ccc(F)cc5)cc4c3=O)n2)cc1` gave an RP-LC retention time of 1210 s.
`O=C(NC1CC1)c1cn(-c2ccc(-c3nc(C4CC4)no3)cn2)cn1` gave an RP-LC retention time of 762 s.
Compound `COCCN1C(=O)c2ccccc2C(C(=O)NCc2ccco2)C1c1ccc(F)cc1` (stereo not given) has an RP-LC retention time of 822 s.
For `COc1ccc(NC(=O)C2CCCN(c3cnc4nc(C)c(C)nc4c3)C2)c(C)c1` (stereo not given), the RP-LC retention time was 712 s.
`Cc1cc(=O)n(CC(=O)NCCn2nc(-c3ccc(F)cc3)ccc2=O)cn1` gave an RP-LC retention time of 603 s.
`Cc1cc(=O)n(CC(=O)N2CCc3ccccc32)c(N2CCc3ccccc3C2)n1` gave an RP-LC retention time of 825 s.
Work on `Cc1ccc(Cn2c(=O)n(CCNC(=O)C3CCCC3)c3ncccc32)cc1` yielded an RP-LC retention time of 836 s.
With `CCOC(=O)c1nc(N(CC)c2ccc(CC)cc2)c2ccccc2n1` the RP-LC retention time was 1130 s.
Compound `Cc1ccc(OCc2nn3c(-c4ccoc4C)nnc3s2)cc1` has an RP-LC retention time of 1010 s.
For `COc1ccc(-c2csc3c(=O)n(CC(=O)N4CCCC4)cnc23)cc1`, the RP-LC retention time was 760 s.
`COCCNC(=O)Nc1nc(CSCc2cc(OC)cc(OC)c2)cs1` gave an RP-LC retention time of 734 s.
In the case of `COc1cc(NC(=O)c2[nH]c3cc(C)sc3c2CN2CCOCC2)cc(OC)c1`, the RP-LC retention time was 718 s.
With `O=C(O)COc1ccc(OCCNC[C@H](O)COc2ccccc2)cc1` the RP-LC retention time was 679 s.
Work on `O=C(CSc1nnc(NC(=O)C2CCCCC2)s1)Nc1nccs1` yielded an RP-LC retention time of 747 s.
For `CC(Cc1ccco1)NC(=O)C1CCN(Cc2cc3ccccc3n2Cc2cccc(Cl)c2)CC1` (stereo not given), the RP-LC retention time was 821 s.
With `COc1cccc(CN2CC(=O)N(Cc3cccc(F)c3)c3ccccc3S2(=O)=O)c1` the RP-LC retention time was 1070 s.
Compound `Cc1nc(-c2ccc(C(=O)N3CCC(C)CC3)cc2)cs1` has an RP-LC retention time of 904 s.
`N#Cc1ccc2[nH]cc(CCCCN3CCN(c4ccc5oc(C(N)=O)cc5c4)CC3)c2c1` gave an RP-LC retention time of 702 s.
`COc1ccc(Cl)cc1N1CC(c2nc(-c3ccccn3)no2)CC1=O` (stereo not given) gave an RP-LC retention time of 724 s.
Compound `COc1ccc(-c2ccnn2-c2ccc(SCc3cccc(C)c3)nn2)cc1` has an RP-LC retention time of 1400 s.
With `O=C(c1ccsc1)N1CCCC(c2nc(-c3ccccc3)n[nH]2)C1` (stereo not given) the RP-LC retention time was 716 s.
With `COC(=O)c1c(C)[nH]c(C(=O)N2CCC(CC(=O)N3CCN(c4ccccc4)CC3)CC2)c1C` the RP-LC retention time was 775 s.
With `Cc1ccc2nsnc2c1S(=O)(=O)NCCc1c(C)[nH]c2ccccc12` the RP-LC retention time was 948 s.
`Cc1nnc2cc(N3CCN(C(=O)Nc4cccc(Cl)c4)CC3)cnn12` gave an RP-LC retention time of 596 s.
With `O=C(NCc1ccc(F)cc1)C1CCCN(c2ccc3cc(S(=O)(=O)N4CCCC4)ccc3n2)C1` (stereo not given) the RP-LC retention time was 754 s.
With `O=[N+]([O-])c1ccc(-c2nc(N3CCOCC3)c3ccccc3n2)cc1` the RP-LC retention time was 833 s.
`Cn1nccc1-c1cccc(-c2noc(Cc3ccc(Cl)cc3)n2)c1` showed an RP-LC retention time of 1130 s.
Work on `Cc1ccc(Cn2c(C(=O)NC3CCC(C)CC3)cc3sccc32)cc1` (stereo not given) yielded an RP-LC retention time of 1340 s.
With `Cc1cc(NC(=O)C2CCN(c3ccc(-c4cccs4)nn3)CC2)sn1` the RP-LC retention time was 604 s.
`CS(=O)(=O)N1CCCc2cc(C(=O)NCCC3=CCCCC3)ccc21` gave an RP-LC retention time of 935 s.
With `CC(C)COc1cc(=O)n2c(c1C(=O)NC1CCCCC1)CCCCC2` the RP-LC retention time was 842 s.
For `O=C(C1=CN(c2ccc(Cl)c(Cl)c2)c2cc(F)ccc2S1(=O)=O)N1CCOCC1`, the RP-LC retention time was 882 s.
With `N#Cc1cccc(NC(=O)C2CCCN(S(=O)(=O)c3c[nH]c(C(=O)N4CCCC4)c3)C2)c1` (stereo not given) the RP-LC retention time was 777 s.
Compound `CN(C)c1ccc(CNC(=O)CCc2c(-c3ccc(Cl)cc3)nc3ccccn23)cc1` has an RP-LC retention time of 588 s.
Work on `Cc1ccc2nc(NC(=O)C3CC(=O)N(c4n[nH]c5ccccc45)C3)sc2c1` (stereo not given) yielded an RP-LC retention time of 787 s.
In the case of `COc1ccc(-c2noc(CN3C(=O)C(C)Oc4ccccc43)n2)c(OC)c1` (stereo not given), the RP-LC retention time was 956 s.
Work on `Cc1cccc(-n2c(Cc3cccn3C)nnc2SCC(=O)NCC2CCCO2)c1C` (stereo not given) yielded an RP-LC retention time of 776 s.
For `CCC(Oc1ccc(=O)n(-c2ccc(F)cc2)n1)C(=O)NCCc1ccco1` (stereo not given), the RP-LC retention time was 759 s.
Compound `O=S(=O)(Nc1ccccc1)c1cccc(-c2nc(-c3ccccc3)no2)c1` has an RP-LC retention time of 1210 s.
`COc1ccccc1NC(=O)c1c(NC(=O)C(C)C)sc2c1CCC2` showed an RP-LC retention time of 815 s.
Compound `CS(=O)(=O)c1ccc(NCCCC(=O)O)c([N+](=O)[O-])c1` has an RP-LC retention time of 624 s.
In the case of `CC(C)c1cc(C(=O)NC2CC2)nc2cc(-c3ccccn3)nn12`, the RP-LC retention time was 819 s.
